Measured values taken from US11508483B2, “Method of identifying a subgroup of patients suffering from dcSSc which benefits from a treatment with sGC stimulators and sGC activators in a higher degree than a control group” (ADVERIO PHARMA GMBH, priority 2018, dated 2022).

Tests used:
[1] = system: systemic sclerosis patients; settings: cited from earlier work
patients with dcSSc [2] = test: RISE-SSc clinical study: lung function, FVC % predicted; assay type: in vivo, human; settings: for Difference in LSMeans with regard to FVC % predicted: Riociguat vs placebo, week 52
Excerpt: Pulmonary physiologic measures, particularly FVC, have frequently been used as surrogate endpoints for SSc-ILD and IPF. […] Also in IPF measurable decline in FVC is correlated with mortality. […] The primary efficacy outcome measure was the change in mRSS from baseline to week 52. Key secondary efficacy measure was Combined Response Index for Systemic Sclerosis (CRISS).

patients with dcSSc [3] = test: RISE-SSc clinical study: modified Rodnan skin score (mRSS); assay type: in vivo, human; parameters: key to Difference in LSMeans with regard to mRSS: mRSS points (skin thickness score, max 51); settings: for Difference in LSMeans with regard to mRSS: Riociguat vs placebo, week 52; for mean change of mRSS for Riociguat compared to placebo: baseline to week 52
Excerpt: The modified Rodnan skin score (mRSS) is a measure of skin thickness and is used as a primary or secondary outcome measure in clinical trials of systemic sclerosis. The maximum mRSS possible is 51. Standardization of the modified Rodnan skin score for use in clinical trials of systemic sclerosis is described in Khanna, D. et al., 2017b. […] The primary efficacy outcome measure was the change in mRSS from baseline to week 52. Key secondary efficacy measure was Combined Response Index for Systemic Sclerosis (CRISS).

[4] = system: human dermal fibroblasts of SSc patients; settings: in vitro; cited from earlier work
patients with dcSSc [5] = test: RISE-SSc clinical study: Health Assessment Questionnaire disability index (HAQ-DI); assay type: in vivo, human; settings: Riociguat vs placebo, week 52
Protocol: The Health Assessment Questionnaire Disability Index (HAQ-DI) is a well-accepted measure of physical function for various rheumatic diseases, and it is the most widely employed and reported measure for assessing physical function in SSc. As a post hoc analysis in study 16277, the percentage of patients stratified by HAQ-DI categorized change was also performed. Clinically meaningful disease improvement was defined as a decrease in HAQ-DI of more than −0.21 from baseline to week 52; stabilization and/or disease worsening were defined as a change in HAQ-DI less than or equal to −0.21 from baseline to week 52. […] The primary efficacy outcome measure was the change in mRSS from baseline to week 52. Key secondary efficacy measure was Combined Response Index for Systemic Sclerosis (CRISS).

[6] = system: TGFβ-induced skin fibrosis; settings: mouse, in vivo; cited from earlier work
[7] = subgroup FVC % predicted at baseline 50-75
[8] = subgroup FVC % predicted at baseline >75
[9] = subgroup anti-RNA polymerase III autoantibodies negative
[10] = subgroup anti-RNA polymerase III autoantibodies positive

Tocilizumab: monoclonal anti-IL-6 receptor-α antibody approved e.g. for the treatment of patients with rheumatoid arthritis
skin score and FVC in placebo-treated patients who transitioned to tocilizumab ([1]; open-label period): skin score improvement and FVC stabilization
influence of anti-RNA polymerase III autoantibody profile on the effect on change in mRSS or ppFVC ([1]; week 48): little clinically meaningful influence

COC(=O)N(C)c1c(N)nc(-c2nn(Cc3ccccc3F)c3ncccc23)nc1N [Riociguat, methyl 4,6-diamino-2-[1-(2-fluorobenzyl)-1H-pyrazolo[3,4-b]pyridin-3-yl]-5-pyrimidinyl(methyl)carbamate]
change of lung function (FVC % predicted) at week 52 compared to baseline (patients with dcSSc [2]; Riociguat group, dcSSc patients positive for anti-RNA polymerase III autoantibodies): +1.2
Difference in LSMeans with regard to FVC % predicted (patients with dcSSc [2]; [7]): 9.2
Difference in LSMeans with regard to FVC % predicted (patients with dcSSc [2]; [8]): −1.3
Difference in LSMeans with regard to FVC % predicted (patients with dcSSc [2]; subgroup ILD at baseline no): −1.7
Difference in LSMeans with regard to FVC % predicted (patients with dcSSc [2]; subgroup ILD at baseline yes): 5.1
Difference in LSMeans with regard to FVC % predicted (patients with dcSSc [2]; [9]): −0.9
Difference in LSMeans with regard to FVC % predicted (patients with dcSSc [2]; [10]): 3.5
Difference in LSMeans with regard to FVC % predicted (patients with dcSSc [2]; subgroup hsCRP >10 mg/L): 2.4
Difference in LSMeans with regard to FVC % predicted (patients with dcSSc [2]; subgroup hsCRP ≤10 mg/L): −0.5
Difference in LSMeans with regard to mRSS (patients with dcSSc [3]; [7]): −8.0
Difference in LSMeans with regard to mRSS (patients with dcSSc [3]; [8]): −1.7
Difference in LSMeans with regard to mRSS (patients with dcSSc [3]; [9]): 0.3
Difference in LSMeans with regard to mRSS (patients with dcSSc [3]; [10]): −10.5
Difference in LSMeans with regard to mRSS (patients with dcSSc [3]; subgroup hsCRP >3 mg/L): −5.8
Difference in LSMeans with regard to mRSS (patients with dcSSc [3]; subgroup hsCRP >10 mg/L): −7.5
Difference in LSMeans with regard to mRSS (patients with dcSSc [3]; subgroup hsCRP ≤3 mg/L): 1.0
Difference in LSMeans with regard to mRSS (patients with dcSSc [3]; subgroup hsCRP ≤10 mg/L): −1.2
mean change of mRSS for Riociguat compared to placebo (patients with dcSSc [3]; patients with FVC % predicted at baseline of 50-75): −7.9 units
mean change of mRSS for Riociguat compared to placebo (patients with dcSSc [3]; patients with hsCRP>10 mg/L): −7.5 units
mean change of mRSS for Riociguat compared to placebo (patients with dcSSc [3]; patients with hsCRP>3): −5.8 units
mean change of mRSS for Riociguat compared to placebo (patients with dcSSc [3]; patients ≥65 y of age): −6.7 units
collagen production [4]: reduce collagen production
Difference in LSMeans with regard to HAQ-DI (patients with dcSSc [5]; [7]): −0.22
Difference in LSMeans with regard to HAQ-DI (patients with dcSSc [5]; [8]): −0.07
Difference in LSMeans with regard to HAQ-DI (patients with dcSSc [5]; [9]): 0.02
Difference in LSMeans with regard to HAQ-DI (patients with dcSSc [5]; [10]): −0.44
Difference in LSMeans with regard to HAQ-DI (patients with dcSSc [5]; subgroup hsCRP >10 mg/L): −0.13
Difference in LSMeans with regard to HAQ-DI (patients with dcSSc [5]; subgroup hsCRP ≤10 mg/L): −0.03

Nc1nc(-c2nn(Cc3ccccc3F)c3ncccc23)ncc1C1CC1 [BAY 41-2272]
progression of TGFβ-induced skin fibrosis [6]: prevented the progression
collagen production [4]: reduce collagen production
